# Measurements as given in patent US7135466B2 (Kirin Beer Kabushiki Kaisha, priority 1999, dated 2006).
# Tests used:
# c-kit = target: T1, c-kit (Homo sapiens, UniProt P10721); assay: Inhibitory activity against c-kit autophosphorylation (MO7e cells, h-SCF); assay type: cell-based; settings: for IC50: MO7e cells, h-SCF 50 ng/ml, read-out: c-kit IC50; for inhibition at 1 µM: Mo7e, figure in parentheses in −( ), at 1000 nM
# T1 construct: MO7e (human megakaryocytic leukemia cell line) which had been arrested for 20 hr; endogenous in cells; host or cells: MO7e human megakaryocytic leukemia cell line
# Method in brief: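 MO7e human megakaryocytic leukemia cells, arrested 20 hr, treated with compound 1 hr, then stimulated with 50 ng/ml h-SCF for 5 min and lysed. Lysates captured on immobilized anti-phosphotyrosine antibody, detected with anti-c-kit primary and HRP secondary antibody; absorbance at 450 nm.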
# PDGF-Ra = target: T2, PDGF-Ra (Homo sapiens, UniProt P16234); assay: Inhibitory activity against PDGF-Ra phosphorylation by PDGF-AA stimulation using G292; assay type: cell-based; settings: for IC50: Pharmacological Test Example 1, > means inhibition at indicated concentration not more than 50%, < and << not less than 50%, read-out: PDGF (E) IC50
# T2 construct: host or cells: G-292 human osteosarcoma cells
# Method in brief: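 Human osteosarcoma G-292, 0.1% FBS o/n; cpd (DMSO) 1 h 37 °C; PDGF-AA 50 ng/ml 5 min; lyse 20 min RT; PY-20 capture 4 °C o/n; anti-PDGF-Ra + HRP-GAR; OD450.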
# T2 sequence (P16234 24-1089): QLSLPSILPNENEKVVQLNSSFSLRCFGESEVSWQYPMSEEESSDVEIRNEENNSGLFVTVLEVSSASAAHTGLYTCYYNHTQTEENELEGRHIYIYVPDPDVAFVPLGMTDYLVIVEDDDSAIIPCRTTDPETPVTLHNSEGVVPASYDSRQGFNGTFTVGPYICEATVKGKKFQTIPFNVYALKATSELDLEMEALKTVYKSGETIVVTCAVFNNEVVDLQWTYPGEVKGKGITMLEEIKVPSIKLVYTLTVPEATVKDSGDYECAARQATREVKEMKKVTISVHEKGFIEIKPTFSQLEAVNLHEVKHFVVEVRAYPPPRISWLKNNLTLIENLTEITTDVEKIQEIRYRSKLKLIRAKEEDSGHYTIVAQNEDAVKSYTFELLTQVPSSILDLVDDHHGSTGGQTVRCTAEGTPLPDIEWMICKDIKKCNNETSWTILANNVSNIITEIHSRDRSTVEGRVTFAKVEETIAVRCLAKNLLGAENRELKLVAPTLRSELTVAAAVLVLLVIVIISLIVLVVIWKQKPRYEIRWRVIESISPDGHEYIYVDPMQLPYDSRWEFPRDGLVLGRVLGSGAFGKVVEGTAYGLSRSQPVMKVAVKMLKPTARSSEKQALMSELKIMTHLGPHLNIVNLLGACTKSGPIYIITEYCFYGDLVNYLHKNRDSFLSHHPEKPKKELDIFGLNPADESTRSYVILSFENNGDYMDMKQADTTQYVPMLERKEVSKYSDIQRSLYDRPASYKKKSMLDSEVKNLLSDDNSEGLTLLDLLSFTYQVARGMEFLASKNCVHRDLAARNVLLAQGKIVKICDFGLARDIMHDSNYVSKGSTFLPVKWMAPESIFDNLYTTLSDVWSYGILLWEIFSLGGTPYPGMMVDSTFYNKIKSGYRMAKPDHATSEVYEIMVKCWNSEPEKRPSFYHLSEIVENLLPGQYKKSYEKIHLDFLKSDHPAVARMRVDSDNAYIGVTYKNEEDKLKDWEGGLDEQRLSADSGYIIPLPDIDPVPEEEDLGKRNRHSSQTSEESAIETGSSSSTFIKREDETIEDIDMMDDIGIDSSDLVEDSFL
# T1 sequence (P10721 26-976): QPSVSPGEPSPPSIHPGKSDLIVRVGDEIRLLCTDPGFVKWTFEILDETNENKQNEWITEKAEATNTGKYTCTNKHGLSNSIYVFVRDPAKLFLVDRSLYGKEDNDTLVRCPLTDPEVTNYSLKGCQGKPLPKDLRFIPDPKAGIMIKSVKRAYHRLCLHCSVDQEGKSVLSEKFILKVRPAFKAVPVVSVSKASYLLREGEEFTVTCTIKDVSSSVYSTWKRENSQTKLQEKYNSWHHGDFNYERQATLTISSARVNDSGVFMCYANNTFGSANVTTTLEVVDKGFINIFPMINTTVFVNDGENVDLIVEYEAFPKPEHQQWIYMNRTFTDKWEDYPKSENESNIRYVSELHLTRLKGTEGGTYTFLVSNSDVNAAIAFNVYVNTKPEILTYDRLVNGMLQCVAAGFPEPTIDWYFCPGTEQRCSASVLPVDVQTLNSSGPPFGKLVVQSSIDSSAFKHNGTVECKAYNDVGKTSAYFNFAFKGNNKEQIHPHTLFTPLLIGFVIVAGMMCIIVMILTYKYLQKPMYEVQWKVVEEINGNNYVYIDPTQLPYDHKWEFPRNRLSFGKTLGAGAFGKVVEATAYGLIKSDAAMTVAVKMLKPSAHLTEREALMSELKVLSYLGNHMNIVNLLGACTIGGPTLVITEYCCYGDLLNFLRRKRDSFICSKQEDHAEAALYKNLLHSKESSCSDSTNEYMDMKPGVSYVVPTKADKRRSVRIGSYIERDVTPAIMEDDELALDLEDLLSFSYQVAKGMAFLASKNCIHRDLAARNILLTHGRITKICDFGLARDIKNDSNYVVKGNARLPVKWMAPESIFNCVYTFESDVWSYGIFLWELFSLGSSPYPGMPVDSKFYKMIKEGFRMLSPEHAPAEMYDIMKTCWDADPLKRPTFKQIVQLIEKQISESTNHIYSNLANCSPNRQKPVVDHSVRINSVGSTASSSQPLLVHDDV
IC50 (c-kit) [nM],IC50 (PDGF-Ra) [nM],inhibition at 1 µM (c-kit) [%],"inhibition at 0.1 µM (PDGF-Ra; G292, figure in parentheses in >100( ), at 100 nM, read-out: PDGF (E) inhibition (%) at 100 nM) [%]",Structure (SMILES)
283,16,,,"CCOc1ccccc1C(C)OC(=O)Nc1ccc(Oc2ccnc3cc(OC)c(OC)cc23)cc1 (stereo not shown) [Example 127, 1-(2-Ethoxyphenyl)ethyl N-{4-[(6,7-dimethoxy-4-quinolyl)oxy]phenyl}carbamate]"
301,26,,,"COc1cc2nccc(Oc3ccc(NC(=O)OC(C)c4ccc(C)cc4)cc3)c2cc1OC (stereo not shown) [Example 132, 1-(4-Methylphenyl)ethyl N-{4-[(6,7-dimethoxy-4-quinolyl)oxy]phenyl}carbamate]"
206,26,,,"COc1cc2nccc(Oc3ccc(NC(=O)OC(C)c4ccc(C)cc4)c(C)c3C)c2cc1OC (stereo not shown) [Example 133, 1-(4-Methylphenyl)ethyl N-{4-[(6,7-dimethoxy-4-quinolyl)oxy]-2,3-dimethylphenyl}carbamate]"
944,> 100,,49,"COc1cc2nccc(Oc3cc(C)c(NC(=O)OC(C)c4ccc(C)cc4)cc3C)c2cc1OC (stereo not shown) [Example 134, 1-(4-Methylphenyl)ethyl N-{4-[(6,7-dimethoxy-4-quinolyl)oxy]-2,5-dimethylphenyl}carbamate]"
475,18,,,"COc1cc2ncnc(Oc3ccc(NC(=O)OC(C)c4ccc(C)cc4)cc3)c2cc1OC (stereo not shown) [Example 135, 1-(4-Methylphenyl)ethyl N{4-[(6,7-dimethoxy-4-quinazolinyl)oxy]phenyl}carbamate]"
233,< 10,,,"COc1cc2nccc(Oc3ccc(NC(=O)OCCSc4ccc(C)cc4)cc3)c2cc1OC [Example 137, 3-[(4-Methylphenyl)sulfanyl]ethyl N-{4-[(dimethoxy-4-quinolyl)oxy]-phenyl}carbamate]"
74,17,,,"COc1cc2nccc(Oc3ccc(NC(=O)OCCSc4ccc(C)cc4)c(C)c3C)c2cc1OC [Example 138, 3-[(4-Methylphenyl)sulfanyl]ethyl N-{4-[(6,7-dimethoxy-4-quinolyl)oxy]-2,3-dimethylphenyl}carbamate]"
234,< 10,,,COc1cc2ncnc(Oc3ccc(NC(=O)OCCSc4ccc(C)cc4)cc3)c2cc1OC [Example 140]

# Second part, the compound before the results:
Structure (SMILES),IC50 (c-kit) [nM],IC50 (PDGF-Ra) [nM],inhibition at 1 µM (c-kit) [%],"inhibition at 0.1 µM (PDGF-Ra; G292, figure in parentheses in >100( ), at 100 nM, read-out: PDGF (E) inhibition (%) at 100 nM) [%]"
COc1cc2ncnc(Oc3ccc(NC(=O)OC(C)c4ccccc4F)cc3)c2cc1OC (stereo not shown) [Example 125],671,< 10,,
"COc1cc2ncnc(Oc3ccc(NC(=O)OC(C)c4ccccc4F)c(Cl)c3)c2cc1OC (stereo not shown) [Example 126, 1-(2-Fluorophenyl)ethyl N-{2-chloro-4-[(6,7-dimethoxy-4-quinazolinyl)oxy]phenyl}carbamate]",,19,10,
"CCOc1ccccc1C(C)OC(=O)Nc1ccc(Oc2ccnc3cc(OC)c(OC)cc23)c(C)c1C (stereo not shown) [Example 128, 1-(2-Ethoxyphenyl)ethyl N-{4-[(6,7-dimethoxy-4-quinolyl)oxy]-2,3-dimethylphenyl}carbamate]",375,26,,
"CCOc1ccccc1C(C)OC(=O)Nc1cc(C)c(Oc2ccnc3cc(OC)c(OC)cc23)cc1C (stereo not shown) [Example 129, 1-(2-Ethoxyphenyl)-ethyl N-{4-[(6,7-dimethoxy-4-quinolyl)oxy]-2,5-dimethylphenyl}carbamate]",732,64,,
"CCOc1ccccc1C(C)OC(=O)Nc1ccc(Oc2ncnc3cc(OC)c(OC)cc23)cc1 (stereo not shown) [Example 130, 1-(2-Ethoxyphenyl)ethyl N-{4-[(6,7-dimethoxy-4-quinazolinyl)oxy]phenyl}carbamate]",714,< 10,,
"CCOc1ccccc1C(C)OC(=O)Nc1ccc(Oc2ncnc3cc(OC)c(OC)cc23)cc1Cl (stereo not shown) [Example 131, 1-(2-Ethoxyphenyl)ethyl N-{-chloro-4-[(6,7-dimethoxy-4-quinazolinyl)oxy]phenyl}carbamate]",,38,40,
"COc1cc2ncnc(Oc3ccc(NC(=O)OC(C)c4ccc(C)cc4)c(Cl)c3)c2cc1OC (stereo not shown) [Example 136, 1-(4-Methylphenyl)ethyl N-{2-chloro-4-[(6,7-dimethoxy-4-quinazolinyl)oxy]phenyl}carbamate]",,43,7,
